Experimental data taken from patent US8084621B2, “3-Pyrrolo[b]cyclohexylene-2-dihydroindolinone derivatives and uses thereof” (Jiangsu Simcere Pharmaceutical R&D Co. Ltd., priority 2006, dated 2011).

How the values were obtained:
Type in all cases: cell-based
[1] = tested on: Human Bladder Cancer Cell Line (T24); experiment: Tumor cell proliferation assay (MTT), T24; details: for inhibition at 10 µM: concentration of 10^−5 mol/L, preliminary screening, 72 hours, read-out: Inhibition rate % T24; for IC50: secondary screening, 48 hours
Text: (§1) The assay used generally is the blue tetrazolium bromide (MTT) method. […] The amount of formazan can be detected by the microplate reader through the absorption value at 570 nm. The amount of formazan product generated is proportional to the number of living cells in the sample, so the OD value may reflect the number of living cells and the ability of a test drug to inhibit or kill cells. The MTT assay may be used in determining the ability of different compounds of the present invention to inhibit one or more cancer cells proliferation. Similar assays can be designed along the same lines for any cancer cell using techniques well known in the art.
(§2) The assay used generally is the blue tetrazolium bromide (MTT) method. […] Intracellular purple formazan salt crystals can be solved in DMSO and the absorption value at 570 nm is detected by the microplate reader, then the number of living cells can be detected indirectly. So MTT assay may be used to determine the ability of a compound of the present invention to inhibit cell proliferation. Similar assays can be designed along the same lines for any cancer cell using techniques well known in the art.
2.2.7 Human Bladder Cancer Cell Line (T24);
The cells of 2.2.6, 2.2.7 cultured in RPMI 1640 medium containing 12% fetal bovine serum in the condition of 37° C., 5% CO2.
(§3) 2.3.1 Cell seeding: Trypsinize the cell by 0.05% trypsin-EDTA and add RPMI 1640 medium (DMEM or 5A) containing 12% calf serum. Count the number, then dilute to 1.67×10^4/ml. Add 180 ul/well to the 96 well plate (3000 cells/well).
(§4) 2.3.2 Culture: cells are incubated for 24 hours at 37° C. under 5% CO2.
(§5) 2.3.3 Preliminary screening: The compounds are firstly diluted to 0.1 mol/L with DMSO, and then diluted to three concentrations of 10^−5 mol/L, 10^−6 mol/L and 10^−7 mol/L. Add 20 ul test compounds to the 96 well plate and incubate for 72 hours. Each group has three parallel wells and all experiments repeat three times. Each inhibition ratio is calculated, then an average value of three times is taken as the measured value. 2.3.4 Staining 2.3.4.1 Attached cell: add 20 ul/well MTT to the 96-well plates; incubate for 4 hours in the incubator. Pour out the culture medium in the well and add 100 ul/well DMSO. Shake the plate for 5 min. 2.3.4.2 Suspension cell: add 20 ul/well MTT to the 96-well plates; incubate for 4 hours in the incubator. Add 50 ul/well 20% SDS and incubate for overnight in the incubator. 2.3.5 Reading the plates: read the absorbance A570-A630 with the Infinite M200 microtiter plate reader. Calculate the inhibition ratio of the test compounds. 2.3.6 Secondary screening: the compounds whose inhibition ratio is greater than 50% at the concentrations of 10^−5 mol/L in the preliminary screening will be picked out for Secondary screening. Dilute these compounds to ten concentrations: 10^−5 mol/L, 0.5×10^−5 mol/L, 10^−6 mol/L, 0.8×10^−6 mol/L, 0.6×10^−6 mol/L, 0.4×10^−6 mol/L, 0.2×10^−6 mol/L, 10^−7 mol/L, 0.8×10^−7 mol/L and 0.4×10^−7 mol/L. Add 20 ul test compound solution to the 96 well plate and incubate for 48 hours. Each group has three parallel wells and all experiments repeat for three times. Read the plates and calculate the inhibition ratio according to the preliminary screening method. 2.3.7 Calculate the Inhibition Ratio of Cell Proliferation and the IC50
(§6) According to the inhibition ratio of cell proliferation at the different concentrations of the compound, inhibition ratio of 50% of the test compound is calculated through the logarithm of the concentration of the compound with the Logit [I] linear regression, and an average value of three times is taken as the measured value of a sample.

[2] = tested on: Human Hepatocellular Carcinoma Cell Line (HEPG2); experiment: Tumor cell proliferation assay (MTT), HEPG2; details: for inhibition at 10 µM: concentration of 10^−5 mol/L, preliminary screening, 72 hours, read-out: Inhibition rate % HEPG2; for IC50: secondary screening, 48 hours
Text: as §1, §2
2.2.8 Human Hepatocellular Carcinoma Cell Line (HEPG2);
The cells of 2.2.8, 2.2.9 cultured in DMEM/High glucose medium containing 12% calf serum in the condition of 37° C., 5% CO2.
as §3, §4, §5, §6

[3] = tested on: Human Non-Small Cell Lung Cancer Cell Line (A549); experiment: Tumor cell proliferation assay (MTT), A549; details: for inhibition at 10 µM: concentration of 10^−5 mol/L, preliminary screening, 72 hours, read-out: Inhibition rate % A549; for IC50: secondary screening, 48 hours
Text: as §1, §2
2.2.2 Human Non-Small Cell Lung Cancer Cell Line (A549)
(§7) The cells of the 2.2.1, 2.2.2, 2.2.3, 2.2.4, 2.2.5 cultured with RPMI 1640 containing 12% calf serum in the condition of 37° C., 5% CO2.
as §3, §4, §5, §6

[4] = tested on: Human Gastric Cancer Cell Line (BGC); experiment: Tumor cell proliferation assay (MTT), BGC; details: for inhibition at 10 µM: concentration of 10^−5 mol/L, preliminary screening, 72 hours, read-out: Inhibition rate % BGC; for IC50: secondary screening, 48 hours
Text: as §1, §2
2.2.1 Human Gastric Cancer Cell Line (BGC)
as §7, §3, §4, §5, §6

[5] = tested on: Human Colon Cancer Cell Line (HCT 116); experiment: Tumor cell proliferation assay (MTT), HCT116; details: concentration of 10^−5 mol/L, preliminary screening, 72 hours, read-out: Inhibition rate % HCT116
Text: as §1, §2
2.2.12 Human Colon Cancer Cell Line (HCT 116);
(§8) The cells of 2.2.11, 2.2.12, 2.2.13 were cultured in MC COYS 5-A medium containing 12% fetal bovine serum in the condition of 37° C., 5% CO2.
as §3, §4, §5, §6

[6] = tested on: Human Ovarian Cancer Cell Line (SK-OV-3); experiment: Tumor cell proliferation assay (MTT), SK-OV-3; details: for inhibition at 10 µM: concentration of 10^−5 mol/L, preliminary screening, 72 hours, read-out: Inhibition rate % SK-OV-3; for IC50: secondary screening, 48 hours
Text: as §1, §2
2.2.13 Human Ovarian Cancer Cell Line (SK-OV-3).
as §8, §3, §4, §5, §6

SMILES | IC50 [6] [nM] | IC50 [3] [nM] | IC50 [1] [nM] | IC50 [2] [µM] | IC50 [4] [nM] | inhibition at 10 µM [1] [%] | inhibition at 10 µM [2] [%] | inhibition at 10 µM [3] [%] | inhibition at 10 µM [4] [%] | inhibition at 10 µM [5] [%] | inhibition at 10 µM [6] [%]
Cc1[nH]c2c(c1C(=O)N1CCN(C)CC1)CCC/C2=C1/C(=O)Nc2ccc(F)cc21 [I-14, 2-methyl-3-(4-methylpiperazine-1-carbonyl)-7-[1,2-dihydro-5-fluoro-2-oxo-3H-indol-(Z)-3-ylidene]-4,5,6,7-tetrahydro-1H-indole] |  |  |  |  |  | 34.4 | 30.4 | 4.43 | 39.4 | 22.1 | 
CCN(CC)CCNC(=O)c1c(C)[nH]c2c1CCC/C2=C1/C(=O)Nc2ccc(C)cc21 [I-4, N-(2-(diethylamino)ethyl)-2-methyl-7-[1,2-dihydro-5-methyl-2-oxo-3H-indol-(Z)-3-ylidene]-4,5,6,7-tetrahydro-1H-indole-3-carboxamide] | 5270 | 1010 |  |  |  |  |  | 67.5 |  |  | 57.1
Cc1[nH]c2c(c1C(=O)NCCN(C)C)CCC/C2=C1/C(=O)Nc2ccc(F)cc21 [I-6, N-(2-(dimethylamino)ethyl)-2-methyl-7-[1,2-dihydro-5-fluoro-2-oxo-3H-indol-(Z)-3-ylidene]-4,5,6,7-tetrahydro-1H-indole-3-carboxamide] |  |  |  |  |  |  |  |  | 32.3 |  | 32.2
Cc1[nH]c2c(c1C(=O)NCCCN(C)C)CCC/C2=C1/C(=O)Nc2ccc(Cl)cc21 [I-7, N-(3-(dimethylamino)propyl)-2-methyl-7-[1,2-dihydro-5-chloro-2-oxo-3H-indol-(Z)-3-ylidene]-4,5,6,7-tetrahydro-1H-indole-3-carboxamide] | 3040 |  |  |  | 2760 |  |  |  | 75.9 |  | 63.3
Cc1[nH]c2c(c1C(=O)NCCO)CCC/C2=C1/C(=O)Nc2ccc(F)cc21 [I-9, N-(2-hydroxyethyl)-2-methyl-7-[1,2-dihydro-5-fluoro-2-oxo-3H-indol-(Z)-3-ylidene]-4,5,6,7-tetrahydro-1H-indole-3-carboxamide] |  |  |  |  |  | 56.1 | 47.5 | 16.3 | 42.1 | 61.9 | 
CCN(CC)CCNC(=O)c1c(C)[nH]c2c1CCC/C2=C1/C(=O)Nc2ccc(Cl)cc21 [I-3, N-(2-(diethylamino)ethyl)-2-methyl-7-[1,2-dihydro-5-chloro-2-oxo-3H-indol-(Z)-3-ylidene]-4,5,6,7-tetrahydro-1H-indole-3-carboxamide] | 2990 | 4950 | 1830 | 3.14 | 2030 | 98.1 | 98.2 | 55.5 | 78.1 |  | 86.7
CCN(CC)CC(O)CNC(=O)c1c(C)[nH]c2c1CCC/C2=C1/C(=O)Nc2ccccc21 (stereo not drawn) [I-63, N-(3-(diethylamino)-2-hydroxypropyl)-2-methyl-7-[1,2-dihydro-2-oxo-3H-indol-(Z)-3-ylidene]-4,5,6,7-tetrahydro-1H-indole-3-carboxamide] | 1350 | 2010 | 3040 | 3.15 | 1850 | 99 | 100 | 61.8 | 80.8 |  | 94

Continued, in another order:

IC50 [6] [nM] | IC50 [3] [nM] | IC50 [1] [nM] | IC50 [2] [µM] | IC50 [4] [nM] | SMILES | inhibition at 10 µM [1] [%] | inhibition at 10 µM [2] [%] | inhibition at 10 µM [3] [%] | inhibition at 10 µM [4] [%] | inhibition at 10 µM [5] [%] | inhibition at 10 µM [6] [%]
 |  | 5900 | 7.36 | 10200 | Cc1[nH]c2c(c1C(=O)NCC(O)CN1CCCCC1)CCC/C2=C1/C(=O)Nc2ccccc21 (stereo not drawn) [I-73, N-(2-hydroxy-3-(piperidin-1-yl)propyl)-2-methyl-7-[1,2-dihydro-2-oxo-3H-indol-(Z)-3-ylidene]-4,5,6,7-tetrahydro-1H-indole-3-carboxamide] | 88.4 | 59.3 | 2.54 | 48.8 | 98.7 | 71.9
 | 5490 |  |  | 7590 | Cc1[nH]c2c(c1C(=O)NCC(O)CN1CCOCC1)CCC/C2=C1/C(=O)Nc2ccc(F)cc21 (stereo not drawn) [I-68, N-(2-hydroxy-3-morpholinopropyl)-2-methyl-7-[1,2-dihydro-5-fluoro-2-oxo-3H-indol-(Z)-3-ylidene]-4,5,6,7-tetrahydro-1H-indole-3-carboxamide] |  |  | 61.1 | 55.4 |  | 11.1
1540 | 2350 |  |  | 1420 | Cc1[nH]c2c(c1C(=O)NCC(O)CN1CCCC1)CCC/C2=C1/C(=O)Nc2ccc(F)cc21 (stereo not drawn) [I-71, N-(2-hydroxy-3-(pyrrolidin-1-yl)propyl)-2-methyl-7-[1,2-dihydro-5-fluoro-2-oxo-3H-indol-(Z)-3-ylidene]-4,5,6,7-tetrahydro-1H-indole-3-carboxamide] |  |  | 71.7 | 82.3 |  | 91.7
6400 | 7120 |  |  | 3450 | Cc1[nH]c2c(c1C(=O)NCC(O)CN1CCN(C)CC1)CCC/C2=C1/C(=O)Nc2ccc(F)cc21 (stereo not drawn) [I-77, N-[2-hydroxy-3-(4-methylpiperazin-1-yl)propyl]-2-methyl-7-[1,2-dihydro-5-fluoro-2-oxo-3H-indol-(Z)-3-ylidene]-4,5,6,7-tetrahydro-1H-indole-3-carboxamide] |  |  | 50.8 | 84.2 |  | 77.3
 |  | 2640 | 7.22 | 7950 | Cc1[nH]c2c(c1C(=O)NCC(O)CN1CCCCC1)CCC/C2=C1/C(=O)Nc2ccc(F)cc21 (stereo not drawn) [I-74, N-(2-hydroxy-3-(piperidin-1-yl)propyl)-2-methyl-7-[1,2-dihydro-5-fluoro-2-oxo-3H-indol-(Z)-3-ylidene]-4,5,6,7-tetrahydro-1H-indole-3-carboxamide] | 98.7 | 84.9 | 1.27 | 60.2 | 99.9 | 88.2
1140 | 1030 |  |  | 1490 | Cc1[nH]c2c(c1C(=O)NCC(O)CN1CCCC1)CCC/C2=C1/C(=O)Nc2ccccc21 (stereo not drawn) [I-70, N-(2-hydroxy-3-(pyrrolidin-1-yl)propyl)-2-methyl-7-[1,2-dihydro-2-oxo-3H-indol-(Z)-3-ylidene]-4,5,6,7-tetrahydro-1H-indole-3-carboxamide] |  |  | 76.3 | 84.8 |  | 95.6
